Results on one compound are retold here after ChEMBL document CHEMBL1140810, “Conversion of an MMP-potent scaffold to an MMP-selective HER-2 sheddase inhibitor via scaffold hybridization and subtle P1' permutations” (Bioorg Med Chem Lett, 2008).

Assay [1] addresses Stromelysin-1 (Homo sapiens, UniProt P08254). The experiment in a line: Inhibition of MMP3.
Assay [2] concerns the target Matrix metalloproteinase-9 (Homo sapiens, UniProt P14780). Description: Inhibition of MMP9.
Assay [3] deals with T1, Disintegrin and metalloproteinase domain-containing protein 10 (Homo sapiens, UniProt O14672).
T1 sequence (O14672 whole entry): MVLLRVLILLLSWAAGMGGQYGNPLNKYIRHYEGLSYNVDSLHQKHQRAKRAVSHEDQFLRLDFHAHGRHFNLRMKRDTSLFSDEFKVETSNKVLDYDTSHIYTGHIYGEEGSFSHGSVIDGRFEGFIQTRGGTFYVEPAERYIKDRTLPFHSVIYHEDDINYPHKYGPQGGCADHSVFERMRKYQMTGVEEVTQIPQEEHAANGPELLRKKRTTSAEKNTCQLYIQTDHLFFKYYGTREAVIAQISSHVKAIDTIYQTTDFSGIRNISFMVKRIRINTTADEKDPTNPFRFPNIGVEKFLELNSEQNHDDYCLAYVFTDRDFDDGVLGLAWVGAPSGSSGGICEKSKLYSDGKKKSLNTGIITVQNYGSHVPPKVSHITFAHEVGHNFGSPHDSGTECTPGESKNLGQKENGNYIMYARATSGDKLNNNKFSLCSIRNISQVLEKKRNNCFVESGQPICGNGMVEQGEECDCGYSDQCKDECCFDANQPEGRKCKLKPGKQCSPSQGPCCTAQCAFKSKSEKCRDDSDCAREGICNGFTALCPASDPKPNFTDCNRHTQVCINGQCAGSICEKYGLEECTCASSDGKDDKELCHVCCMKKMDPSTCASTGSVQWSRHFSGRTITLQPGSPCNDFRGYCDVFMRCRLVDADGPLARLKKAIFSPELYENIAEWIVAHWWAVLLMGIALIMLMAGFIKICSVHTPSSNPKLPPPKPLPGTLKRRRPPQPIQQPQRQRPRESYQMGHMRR

The target in assay [4] is 72 kDa type IV collagenase (Homo sapiens, UniProt P08253).
In assay [5] the target is T2, Interstitial collagenase (Homo sapiens, UniProt P03956).
T2 sequence (P03956 whole entry): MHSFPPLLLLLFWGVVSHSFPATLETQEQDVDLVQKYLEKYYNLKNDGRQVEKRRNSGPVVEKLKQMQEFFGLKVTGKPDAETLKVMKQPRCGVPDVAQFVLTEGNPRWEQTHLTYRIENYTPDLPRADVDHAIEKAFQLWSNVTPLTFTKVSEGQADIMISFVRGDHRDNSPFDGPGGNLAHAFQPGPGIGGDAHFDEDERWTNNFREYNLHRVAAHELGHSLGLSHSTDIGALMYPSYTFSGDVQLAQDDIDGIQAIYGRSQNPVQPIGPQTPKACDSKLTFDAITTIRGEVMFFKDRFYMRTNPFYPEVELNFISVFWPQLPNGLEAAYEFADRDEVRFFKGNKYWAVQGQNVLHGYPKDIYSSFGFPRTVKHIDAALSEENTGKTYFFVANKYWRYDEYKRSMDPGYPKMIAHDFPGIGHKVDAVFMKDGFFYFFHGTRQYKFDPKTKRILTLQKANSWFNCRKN

For assay [6], the target named is T1, Disintegrin and metalloproteinase domain-containing protein 10. The experiment in a line: Inhibition of HER2 sheddase in human BT474 cells. It is filed as cell-based, BT-474.

Chain of Matrix metalloproteinase-9 (P14780 whole entry, the tested form may be a part): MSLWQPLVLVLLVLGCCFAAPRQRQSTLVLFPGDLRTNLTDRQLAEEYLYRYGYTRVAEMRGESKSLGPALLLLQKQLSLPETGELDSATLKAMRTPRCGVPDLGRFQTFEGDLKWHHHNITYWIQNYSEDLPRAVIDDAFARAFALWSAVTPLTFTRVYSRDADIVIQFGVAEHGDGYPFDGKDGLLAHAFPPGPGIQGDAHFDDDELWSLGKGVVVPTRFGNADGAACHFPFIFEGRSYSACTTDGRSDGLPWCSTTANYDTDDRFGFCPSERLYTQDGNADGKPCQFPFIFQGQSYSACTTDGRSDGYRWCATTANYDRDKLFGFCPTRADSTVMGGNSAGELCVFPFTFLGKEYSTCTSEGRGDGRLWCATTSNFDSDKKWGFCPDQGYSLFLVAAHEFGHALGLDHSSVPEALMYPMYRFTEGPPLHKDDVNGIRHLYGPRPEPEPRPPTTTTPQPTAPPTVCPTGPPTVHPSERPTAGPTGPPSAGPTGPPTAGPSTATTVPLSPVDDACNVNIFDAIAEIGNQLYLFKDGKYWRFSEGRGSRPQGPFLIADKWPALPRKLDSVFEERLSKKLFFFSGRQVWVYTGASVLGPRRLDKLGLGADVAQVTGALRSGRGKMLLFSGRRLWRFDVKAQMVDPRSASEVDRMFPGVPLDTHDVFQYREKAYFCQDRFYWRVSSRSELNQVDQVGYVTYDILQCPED
Chain of Stromelysin-1 (P08254 whole entry): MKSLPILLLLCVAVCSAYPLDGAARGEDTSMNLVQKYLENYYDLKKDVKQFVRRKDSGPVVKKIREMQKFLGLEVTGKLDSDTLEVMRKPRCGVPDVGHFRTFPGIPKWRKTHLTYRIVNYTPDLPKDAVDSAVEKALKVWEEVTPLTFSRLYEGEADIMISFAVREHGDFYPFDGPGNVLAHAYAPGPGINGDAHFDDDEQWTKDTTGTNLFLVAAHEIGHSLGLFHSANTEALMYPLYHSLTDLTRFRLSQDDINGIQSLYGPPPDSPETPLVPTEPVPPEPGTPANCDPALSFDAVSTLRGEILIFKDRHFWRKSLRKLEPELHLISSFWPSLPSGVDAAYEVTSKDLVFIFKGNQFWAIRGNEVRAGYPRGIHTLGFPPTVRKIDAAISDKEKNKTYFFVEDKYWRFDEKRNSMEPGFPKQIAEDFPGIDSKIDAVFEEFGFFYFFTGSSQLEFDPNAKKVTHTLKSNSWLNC
Chain of 72 kDa type IV collagenase (P08253 whole entry): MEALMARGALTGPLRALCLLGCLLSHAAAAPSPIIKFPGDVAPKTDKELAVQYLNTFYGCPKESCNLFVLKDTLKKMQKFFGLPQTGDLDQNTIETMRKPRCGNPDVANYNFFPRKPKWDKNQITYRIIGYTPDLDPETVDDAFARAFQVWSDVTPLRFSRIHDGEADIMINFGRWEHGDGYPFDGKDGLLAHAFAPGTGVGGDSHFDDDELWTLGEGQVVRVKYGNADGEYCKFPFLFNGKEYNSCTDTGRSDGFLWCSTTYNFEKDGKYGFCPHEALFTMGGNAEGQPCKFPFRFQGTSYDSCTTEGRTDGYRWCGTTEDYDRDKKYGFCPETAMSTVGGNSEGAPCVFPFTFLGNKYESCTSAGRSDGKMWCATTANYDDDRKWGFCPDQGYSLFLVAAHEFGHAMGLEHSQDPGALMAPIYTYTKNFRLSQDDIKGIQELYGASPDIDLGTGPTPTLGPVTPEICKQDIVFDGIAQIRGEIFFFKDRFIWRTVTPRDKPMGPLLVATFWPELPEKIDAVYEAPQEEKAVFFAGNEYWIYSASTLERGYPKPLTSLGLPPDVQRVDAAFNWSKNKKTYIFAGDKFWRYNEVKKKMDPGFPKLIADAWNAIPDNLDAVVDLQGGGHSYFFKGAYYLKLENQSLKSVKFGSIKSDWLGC

For `O=C(O[C@H]1CCOC1)N1CCC(CS(=O)(=O)N2CCN(c3ccccc3)CC2)(C(=O)NO)CC1`, the IC50 in assay [1] is 925 nM; in assay [2] it was 78 nM; in assay [3] it was 15 nM; in assay [4], 13 nM; in assay [5], 774 nM; in assay [6], 13 nM.

By IC50 is commonly meant the concentration needed to halve the response being measured. Low values mean higher potency, high ones lower potency.
